Consider 12 compounds from US10675256B2, “Methods for inhibiting conversion of choline to trimethylamine (TMA)” (The Procter & Gamble Company, priority 2017, dated 2020).

Like-named read-outs stand apart in the source and are kept apart here.

Assay [1] relates to Proteus mirabilis 29906 (Pm) lysate. As to the kind of experiment: Inhibition of formation of TMA from choline in Proteus mirabilis lysate (EXAMPLE 2). The format is biochemical. The settings on record: Proteus mirabilis 29906 lysate, d9-choline chloride substrate, 37° C. for two hours; read-out: TMA Inhibition (IC50, mol/L).
The subject of assay [2] is human fecal polymicrobial community. As to the kind of experiment: Human fecal polymicrobial incubation with d9-choline, TMA inhibition (EXAMPLE 3). The format is cell-based. The settings on record: human fecal slurry 0.2% (w/v), 50 μM d9-choline chloride, 20 hours at 37° C., anaerobic; read-out: TMA Inhibition (IC50, mol/L). The method, then: Human fecal polymicrobial incubation with deuterium labeled choline compound screening method, including cell viability assay. All materials were pre-reduced in an anaerobic chamber for 24 hours before using in the experiments and experimental procedures were performed under anaerobic conditions (chamber purged with 85% nitrogen, 5% hydrogen, 10% carbon dioxide).
Human fecal samples were collected from a healthy volunteer with no chronic illnesses, blood borne diseases or active infections. The volunteer had not received antibiotics within two months prior to donation and provided written informed consent. Samples were diluted to make a 20% (w/v) fecal slurry by resuspension of the feces in a media containing 3% (w/v) tryptic soy broth, 1% (w/v) trehalose, pH 7.3. The fecal slurry was homogenized and filtered by hand using a stomacher bag with an integrated 170 μm membrane. DMSO (5% (w/v)) was added to the filtered slurry and aliquots were stored in cryogenic vials at −80° C. until use. Frozen fecal slurries were diluted to 0.2% (w/v) with M9 media (Na2HPO4 (6 g/L), KH2PO4 (3 g/L), NaCl (0.5 g/L) with addition of 0.1 mM CaCl2 and 1 mM MgSO4) and dispensed (1 mL) into deep well 96-well plates. Diluted fecal slurries containing 50 μM d9-choline chloride and compounds in doses ranging from 500 μM to 3.81 nM were sealed and incubated at 37° C. with shaking. After 20 hours, an aliquot of the fecal polymicrobial community was analyzed for viability using PrestoBlue cell viability reagent (Thermo Fisher Scientific, USA) as described below. The reaction plates were subsequently centrifuged (4000×g at 4° C. for 12 min) to pellet fecal material and 150 μl aliquots were transferred and quenched with addition of formic acid to 1% (v/v). All fecal processing and polymicrobial assay steps were performed in an anaerobic environment. The products were determined by LC/MS/MS and IC50 values were calculated as described previously for detection and analysis of TMA and d9-TMA in EXAMPLE 2.

Assay [3] has as its system conversion of choline to TMA. As to the kind of experiment: Rapid preclinical method, d9-choline challenge in mice (EXAMPLE 6). The format is in vivo. The conditions noted are these: oral gavage with 2 mg d9-Choline, plasma at 3 hr. The protocol: Challenge: C57bl/6 female mice (8 wk of age ˜20 g BW) were maintained in accordance with the NIH guidelines in a 12:12 hr light:dark cycle on normal chow diet were placed in a clean cage without food ˜1 hr prior to gavage. […] Food was returned after a 2 hr fast (1 hr after gavage administration). Blood (30 μL) was collected into a heparinized capillary tube 2, 3 and 4 hours after gavage. Blood was kept at 4° C., then spun using a centrifuge (5 min in centrifuge designed to capillary tubes) to separate plasma and hematocrit within 4 hours after collection. Plasma samples were stored at −80° C. Concentration of d9 Choline, d9TMA and d9TMAO was measured by LC-MS/MS.
Flora Normalization: Twenty four hours post-gavage mice were placed in a clean cage and fecal material from conventional mice was spread in all the cages.

The subject of assay [4] is whole cell wild-type P. mirabilis. As to the kind of experiment: Inhibition of conversion of choline to TMA by whole cell wild-type P. mirabilis (EXAMPLE 5). The format is cell-based. The settings on record: Proteus mirabilis, read-out: EC50 (mol/L) whole cell wild-type P. mirabilis. The protocol: (§1) Ability of compounds to inhibit the conversion of choline to TMA in cell lysates or whole cells were determined using methods as described in Wang, Z, Roberts, A B, Buffa J A, et al. (2015) Non-lethal inhibition of gut microbial trimethylamine production for the treatment of atherosclerosis, Cell 163: 1585-1595. Briefly, efficacy was measured as IC50 (nM) by inhibition of conversion of choline to TMA metabolized by recombinant P. mirabilis Cut C/D lysate; recombinant D. alaskensis Cut C/D lysate, or whole cell wild-type P. mirabilis.

The target of assay [5] is recombinant P. mirabilis Cut C/D lysate (Proteus mirabilis, UniProt B4EYG1). As to the kind of experiment: Inhibition of conversion of choline to TMA by recombinant P. mirabilis Cut C/D lysate (EXAMPLE 5). The format is biochemical. The method, then: as §1
recombinant P. mirabilis Cut C/D lysate, sequence (B4EYG1 entry or part of it): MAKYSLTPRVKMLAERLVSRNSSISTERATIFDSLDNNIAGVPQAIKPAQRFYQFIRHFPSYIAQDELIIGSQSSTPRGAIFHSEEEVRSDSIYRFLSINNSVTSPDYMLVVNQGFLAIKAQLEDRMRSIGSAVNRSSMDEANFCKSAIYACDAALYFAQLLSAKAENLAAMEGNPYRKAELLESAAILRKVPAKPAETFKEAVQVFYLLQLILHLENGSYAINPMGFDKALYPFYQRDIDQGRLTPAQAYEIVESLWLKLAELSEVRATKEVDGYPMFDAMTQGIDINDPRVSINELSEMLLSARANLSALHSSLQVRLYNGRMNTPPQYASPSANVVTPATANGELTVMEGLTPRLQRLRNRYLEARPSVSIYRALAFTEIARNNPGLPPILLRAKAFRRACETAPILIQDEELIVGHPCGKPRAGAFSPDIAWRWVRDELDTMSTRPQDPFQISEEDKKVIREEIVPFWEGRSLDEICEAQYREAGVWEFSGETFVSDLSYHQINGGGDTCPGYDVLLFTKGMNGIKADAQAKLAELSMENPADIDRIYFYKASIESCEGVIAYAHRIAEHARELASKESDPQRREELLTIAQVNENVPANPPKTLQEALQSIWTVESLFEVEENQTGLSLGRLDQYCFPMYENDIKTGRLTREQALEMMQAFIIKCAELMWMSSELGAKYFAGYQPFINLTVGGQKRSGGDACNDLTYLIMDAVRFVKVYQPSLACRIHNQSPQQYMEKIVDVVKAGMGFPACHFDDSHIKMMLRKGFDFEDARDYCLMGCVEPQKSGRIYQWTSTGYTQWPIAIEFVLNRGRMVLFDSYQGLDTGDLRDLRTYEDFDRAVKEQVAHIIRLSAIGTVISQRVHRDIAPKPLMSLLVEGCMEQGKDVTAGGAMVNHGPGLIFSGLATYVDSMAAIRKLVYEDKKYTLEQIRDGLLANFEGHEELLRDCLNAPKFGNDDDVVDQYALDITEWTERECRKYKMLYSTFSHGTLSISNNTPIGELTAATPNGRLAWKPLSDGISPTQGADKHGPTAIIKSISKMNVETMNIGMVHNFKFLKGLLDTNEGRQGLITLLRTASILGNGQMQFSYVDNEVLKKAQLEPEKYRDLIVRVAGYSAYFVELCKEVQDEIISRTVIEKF
recombinant P. mirabilis Cut C/D lysate, sequence (B4EYG0 entry or part of it, further chain): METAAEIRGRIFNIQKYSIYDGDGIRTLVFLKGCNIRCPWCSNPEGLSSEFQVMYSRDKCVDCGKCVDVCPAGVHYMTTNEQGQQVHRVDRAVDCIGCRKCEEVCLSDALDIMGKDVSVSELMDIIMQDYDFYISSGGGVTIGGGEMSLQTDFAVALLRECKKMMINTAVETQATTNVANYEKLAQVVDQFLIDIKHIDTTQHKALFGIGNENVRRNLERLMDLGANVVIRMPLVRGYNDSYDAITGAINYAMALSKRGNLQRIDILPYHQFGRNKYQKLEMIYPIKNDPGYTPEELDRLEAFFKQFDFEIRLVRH
A further assay relates to plasma TMAO. Put plainly: Preclinical screening method, plasma TMAO in mice on 1% choline diet (EXAMPLE 4). The format is in vivo, mice (C57bl/6). The conditions noted are these: 1% Choline Added diet, oral gavage 310 mg/kg/day, 3 days, blood 20 hours post gavage. The method, then:
Starting at day 0, mice (C57bl/6, ˜19 g, 10 wk of age; n=5/group) were maintained in accordance with the NIH guidelines in a 12:12 hr light:dark cycle and provided with 1% Choline Added diet (Envigo custom formulation prepared, similar to Teklad Global Rodent Diet 2018) ad libitum. Concurrent with introduction of the diet, mice were gavaged once daily orally using a 1.5″ 22G ball-tip curved feeding needle to administer compound in 200 μl or less of water at one or multiple of the dose 0, 1.0, 3.1, 10, 31, 100 or 310 mg/kg/day. Urine was collected once daily in the morning. Animals were restrained by hand and bladder was expressed by gentle palpation of the pelvic region. […]
For measurement of TMA in plasma, samples were acidified (10 mM HCl final) prior to storage at −80° C. TMAO and TMA and their d9-isotopologues were quantified using stable isotope dilution HPLC with on-line electrospray ionization tandem mass spectrometry ([…]) methods as described in (Wang Z, Klipfell E, Bennett B J, et al. (2011) Gut flora metabolism of phosphatidylcholine promotes cardiovascular disease. Nature 472:57-63) using d4(1,1,2,2)-choline, d3(methyl)-TMAO, and d3(methyl)-TMA as internal standards. […]

Assay [6] addresses T1, recombinant D. alaskensis Cut C/D lysate (Oleidesulfovibrio alaskensis, UniProt Q30W70).
T1 construct: made in house
As to the kind of experiment: Inhibition of conversion of choline to TMA by recombinant D. alaskensis Cut C/D lysate (EXAMPLE 5). The format is biochemical. The method, then:
as §1

T1 sequence (Q30W70 whole entry): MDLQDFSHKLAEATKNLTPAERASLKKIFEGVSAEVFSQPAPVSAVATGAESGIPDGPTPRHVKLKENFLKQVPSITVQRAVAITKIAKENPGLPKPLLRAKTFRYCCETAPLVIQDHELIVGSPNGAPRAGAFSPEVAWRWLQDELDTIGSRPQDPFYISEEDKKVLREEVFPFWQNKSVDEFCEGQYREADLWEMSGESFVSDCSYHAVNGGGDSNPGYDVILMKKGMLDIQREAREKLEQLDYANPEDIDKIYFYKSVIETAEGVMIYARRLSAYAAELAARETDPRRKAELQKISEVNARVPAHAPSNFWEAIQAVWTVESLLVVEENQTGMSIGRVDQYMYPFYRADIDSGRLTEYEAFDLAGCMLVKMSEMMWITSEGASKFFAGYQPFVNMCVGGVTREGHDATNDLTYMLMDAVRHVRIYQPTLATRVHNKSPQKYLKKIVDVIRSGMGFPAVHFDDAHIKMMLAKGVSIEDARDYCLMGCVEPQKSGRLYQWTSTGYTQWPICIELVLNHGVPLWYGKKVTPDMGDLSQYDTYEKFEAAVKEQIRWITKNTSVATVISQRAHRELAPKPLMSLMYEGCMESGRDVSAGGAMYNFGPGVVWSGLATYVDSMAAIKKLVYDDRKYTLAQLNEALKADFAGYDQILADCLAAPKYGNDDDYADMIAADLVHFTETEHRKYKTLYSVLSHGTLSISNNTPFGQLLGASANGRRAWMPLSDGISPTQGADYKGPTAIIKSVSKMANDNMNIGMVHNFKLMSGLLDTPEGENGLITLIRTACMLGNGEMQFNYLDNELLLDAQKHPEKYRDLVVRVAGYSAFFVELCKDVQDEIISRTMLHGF

For the compound `COC(=O)C(=O)C[N+](C)(C)C1CC1` [compound 6, N-(3-methoxy-2,3-dioxopropyl)-N,N-dimethylcyclopropanaminium], the IC50 in assay [1] is 4.65 µM.

Take `CCOC(=O)CCCCC[N+](C)(C)C1CC1` [compound 9, N-(6-ethoxy-6-oxohexyl)-N,N-dimethylcyclopropanaminium]: the IC50 in assay [1] was determined as 945 µM.

As to `C=CC[N+](C)(C)C1CC1` [compound 2, N-allyl-N,N-dimethylcyclopropanaminium], the IC50 stood at 0.00398 µM in assay [1] and 53.2 µM in assay [2].

Take `C#CC[N+]1(C2CC2)CCOCC1` [compound 10, 4-cyclopropyl-4-(prop-2-yn-1-yl)morpholin-4-ium]: the IC50 in assay [1] worked out at 1.28 µM.

For `C[N+](C)(CCO)C1CC1` [ID 1, Cyclopropane-dimethyl-ethanolamine iodide], the “Calculated EC50 (mg/kg) compared to Vehicle Control” value in assay [3] is listed as 0.75 mg/kg. Also, the EC50 in assay [4] turned out to be 0.0481 µM. For the same compound, the IC50 in assay [5] was 0.0062 µM; in assay [6], 0.087 µM. Also, the “Remaining plasma TMAO as a percentage of plasma TMAO in same day vehicle control (% of control remaining)” value in the assay on plasma TMAO came out at 5%.

As for `C#CC[N+](C)(C)C1CC1` [compound 3, N,N-dimethyl-N-(prop-2-yn-1-yl)cyclopropanaminium], the IC50 was 0.0331 µM in assay [1] and 0.428 µM in assay [2].

As to `C[N+](C)(CC(N)=O)C1CC1` [compound 8, N-(2-amino-2-oxoethyl)-N,N-dimethylcyclopropanaminium], in assay [1], the IC50 worked out at 202 µM.

Turning to `C=C(C[N+](C)(C)C1CC1)C(=O)OC` [compound 5, N-(2-(methoxycarbonyl)allyl)-N,N-dimethylcyclopropanaminium], the values for the IC50 in assay [1] and in assay [2] were 50.4 µM and 166 µM, respectively.

Regarding `C[N+](C)(CF)C1CC1` [N-(fluoromethyl)-N,N-dimethylcyclopropanaminium iodide], the IC50 was determined as 60 µM in assay [1], 21 µM in assay [5] and 45 µM in assay [6].

Consider `C#CC[N+](C)(C)C1CC1` [ID 3, N,N-dimethyl-N-(prop-2-yn-1-yl)cyclopropanaminium bromide], for which, in assay [3], the “Calculated EC50 (mg/kg) compared to Vehicle Control” value was 0.04 mg/kg. In assay [4] (inhibition of conversion of choline to TMA), the EC50 is 0.038 µM. The IC50 in assay [5] is 0.15 µM; in assay [6], 0.11 µM. Also, the “Remaining plasma TMAO as a percentage of plasma TMAO in same day vehicle control (% of control remaining)” value with plasma TMAO amounted to 23%.

Consider `C[N+](C)(CCO)C1CC1` [compound 1], for which the IC50 turned out to be 0.000251 µM in assay [1] and 135 µM in assay [2].

As for `COC(=O)C[N+](C)(C)C1CC1` [compound 4, N-(2-methoxy-2-oxoethyl)-N,N-dimethylcyclopropanaminium], the IC50 in assay [1] was 89.2 µM; in assay [2], 134 µM.
